# Measured values reported in US20240083921A1, “BORATE DERIVATIVE AND USES THEREOF” (Reistone Biopharma Company Limited, priority 2020, published 2024).
# Like-named read-outs stand apart in the source and are kept apart here.
# Tests used:
# [1] = system: imiquimod-induced psoriasis mouse model; assay: Suppression of imiquimod-induced psoriasis in mice (topical ointment); format: in vivo, Balb/c female mice; conditions: for Ratio of spleen weight to body weight Mean / Total clinical score Mean / Erythema score Mean / Scale score Mean / Thickness score Mean: IMQ mice; for Ratio of spleen weight to body weight Mean: Day 7, percentage of spleen to body weight; for Total clinical score Mean: endpoint; for Erythema score Mean / Scale score Mean / Thickness score Mean: scale 0-4; for clinical score at the endpoint (statement): each dose of Compound 12-1; for clinical score at the endpoint (statement) / effect on the ratio of spleen weight to body weight (statement): versus model; for effect on the ratio of spleen weight to body weight (statement): three dose groups of Compound 12-1
# Source text: Test Example 4 Experiment of Suppression of Imiquimod-Induced Psoriasis
# An appropriate amount of Compound 12-1 was formulated into an ointment with the following components: 0.1% of Compound 12-1, 9% of hexanediol, 78.8% of white petrolatum, 5% of paraffin, 7% of glyceryl mono- and distearate, and 0.1% of […], which were mechanically stirred until an ointment was formed.
# 1) Model Establishment and Drug Administration
# 7-Week-old Balb/c female mice were used and the hair on their back in an area of 2 cm×3 cm was shaved the day before the experiment. On Days 1-7 of the experiment, the test compounds were applied on the skin for 6 hours, and then imiquimod (IMQ) ointment (Aldara (5%)) was continuously applied to the back skin of mice for 7 days, so as to establish a mouse model of psoriasis, while the control group was given the same dose of petrolatum ointment. On Days 3, 5 and 7, the severity of skin inflammation was assessed, including measurement of skin thickness, crusting and erythema, scored on a 5-point scale (0-4) respectively. The total score was used to assess the severity of skin inflammation. On Day 7 of the experiment, the spleen was collected and weighed, and the percentage of spleen to body weight was calculated to assess the immunosuppressive effect of the drug.
# Normal control group, model control group, low, medium and high dose groups of Compound 12-1 (0.01%, 0.03% and 0.1%), 0.03% Compound 1-1 group, and 0.03% reference Compound A group were set up in this experiment.
# The total score of the degree of skin inflammation was the clinical score, the indicators of which were relatively subjective, and higher score indicated more serious disease. The degree of increase in skin thickness was an objective assessment indicator, and more increase in thickness indicated more serious disease. The ratio of spleen weight to body weight was an objective assessment indicator, and smaller ratio of spleen weight to body weight indicated stronger immunosuppressive effect of the drug.
# [2] = target: PDE4B1 enzyme (Homo sapiens (Human), UniProt Q07343); assay: In vitro PDE4B enzyme activity detection test (IMAP FP, FAM-cAMP substrate); format: biochemical; conditions: PDE4B1 0.04 nM, FAM-cAMP 0.1 μM, 25° C. 30 min
# Method: Test Example 1 In vitro PDE4B Enzyme Activity Detection Test
# 1. Experimental Materials
# First, a stock solution of the compound at a concentration of 10 mM was prepared in a test tube with 90% DMSO (10% water), and it was used to prepare a series of dilutions with a dilution factor of 1:5 and final concentrations starting from 100 μM to as low as 0.05 nM.
# 0.2 μl of the compound solution was transferred into a 384-well reaction plate, and 0.2 μl of 100% DMSO was transferred into both the negative and positive controls. Then, 10 μl of 2×PDE4B1 enzyme solution (making a final concentration of 0.04 nM) was added to each well, and 10 μl of 1×reaction buffer instead of the enzyme solution was added to the zero enzyme activity control wells. The plate was centrifuged at 1,000 rpm for 1 min and incubated at room temperature for 15 min. Next, 10 μl of 2×FAM-cAMP substrate solution (making a substrate final concentration of 0.1 μM) was added to each well of the 384-well reaction plate. The plate was centrifuged at 1,000 rpm for 1 min and the reaction was carried out at 25° C. for 30 min. After completion of the reaction, 60 μl of reaction stop solution was added to each well of the 384-well reaction plate to terminate the reaction, and the plate was incubated with shaking at 600 rpm on a shaker at room temperature in the dark for 60 min.
# After the incubation, the RLU data were read and the inhibition rate was calculated. The IC50 value was calculated from the concentration-inhibition fitted curve, wherein the maximum value refers to the reading of the DMSO control and the minimum value refers to the reading of the zero enzyme activity control.
# The in vitro inhibition of PDE4B1 enzyme activity by the Examples of the present disclosure was determined by the above test, and the measured IC50 value was shown in Table 1.
# [3] = system: IL-23 secretion of DC cells differentiated from human mononuclear cells; assay: In vitro inhibition of IL-23 secretion of DC cells differentiated from human mononuclear cells, Zymosan stimulation, ELISA; format: cell-based; conditions: Table 3: inhibition of IL-23 secretion of DC cells, Zymosan 200 μg/ml, 24 hours
# Method: Test Example 3 Experiment of in vitro Inhibition of IL-23 Secretion of DC Cells Differentiated from Human Mononuclear Cells by the Compounds
# Day 0: Mononuclear cells were isolated from fresh human peripheral blood and purified and then resuspended in RPMI-1640 complete medium (RPMI-1640+10% FBS+1% P.S.+55 μM 2-Mercaptoethanol). When differentiating into DC cells, IL-4 at a concentration of 50 ng/ml and GM-CSF at 100 ng/ml were added to the medium. The cells were cultured at a density of 1×10^6 cells/mL in a culture dish with a diameter of 100 mm for differentiation in an incubator at 37° C. with a carbon dioxide concentration of 5%. Day 3: Half the volume of RPMI complete medium was replaced with fresh RPMI complete medium while maintaining the concentration of IL-4 at 50 ng/ml and GM-CSF at 100 ng/ml. Day 6: Non-adherent cells (DC cells) in the culture dish were collected and washed with PBS. The washed DC cells were resuspended with RPMI complete medium at a density of 1×10^6 cells/mL. Then. 1×10^5 DC cells were added to each well of the 96-well cell culture plate and pre-incubated with different dilutions of the compounds to be tested (or DMSO blank negative control at equivalent concentration) for 1 hour, followed by addition of 200 μg/ml of the TLR2 agonist Zymosan to stimulate the DC cells for 24 hours. Day 7: After 24 hours of Zymosan stimulation of DC cells. the supernatant in each well of the 96-well plate was collected and detected by ELISA for the concentration of IL-23.
# The inhibition of IL-23 secretion of DC cells differentiated from human mononuclear cells by the compounds of the present disclosure was determined by the above test, and the determined IC50 value was shown in Table 3.
# [4] = system: TNF-α release from peripheral blood mononuclear cells (PBMCs); assay: Inhibition of pro-inflammatory cytokine (TNF-α) release from LPS-stimulated PBMCs, ELISA; format: cell-based; conditions: LPS 0.1 ng/ml, 24 hours
# Source text: Test Example 2 Inhibitory Effect of Compounds on the Release of Pro-Inflammatory Cytokines from Peripheral Blood Mononuclear Cells (PBMCs)
# Frozen PBMCs were thawed and detected by Trypan blue staining for cell viability and number. The thawed PBMCs were washed with RPMI1640 complete medium (RPMI1640+10% FBS+1% PS) and centrifuged, and the supernatant was discarded. The PBMCs were resuspended with RPMI1640 complete medium and the cell density was adjusted to 2×10^6 cells/mL. 2×10^5 PBMC cells were plated in a 96-well cell culture plate, and the compounds to be tested were added at different concentrations, in a 1:5 serial dilution of 9 concentrations starting from a maximum compound concentration of 100 μM, each in duplicate. LPS was added at a final concentration of 0.1 ng/ml, making a total volume of 200 μL. For the negative and positive controls, only LPS and DMSO were added to the negative control well, while 1 μg/mL of dexamethasone was added to the positive control well in addition to cells and LPS as. The cells were incubated in an incubator at 37° C. for 24 hours. After completion of the incubation, 100 μL of cell culture supernatant was collected and detected by ELISA for the TNF-α level. 100 μL of CellTiter-Glo was added to the remaining cells in each well to detect the cell viability level. The IC50 value of inhibition of TNF-α release by the compounds was calculated.
# The in vitro inhibition of pro-inflammatory cytokine release of PBMCs by the Examples of the present disclosure was determined by the above test, and the determined IC50 value was shown in Table 2.
# [5] = Compound A 0.03%, Compound 1-1 0.03%
# PDE4B1 enzyme, sequence (Q07343 whole entry): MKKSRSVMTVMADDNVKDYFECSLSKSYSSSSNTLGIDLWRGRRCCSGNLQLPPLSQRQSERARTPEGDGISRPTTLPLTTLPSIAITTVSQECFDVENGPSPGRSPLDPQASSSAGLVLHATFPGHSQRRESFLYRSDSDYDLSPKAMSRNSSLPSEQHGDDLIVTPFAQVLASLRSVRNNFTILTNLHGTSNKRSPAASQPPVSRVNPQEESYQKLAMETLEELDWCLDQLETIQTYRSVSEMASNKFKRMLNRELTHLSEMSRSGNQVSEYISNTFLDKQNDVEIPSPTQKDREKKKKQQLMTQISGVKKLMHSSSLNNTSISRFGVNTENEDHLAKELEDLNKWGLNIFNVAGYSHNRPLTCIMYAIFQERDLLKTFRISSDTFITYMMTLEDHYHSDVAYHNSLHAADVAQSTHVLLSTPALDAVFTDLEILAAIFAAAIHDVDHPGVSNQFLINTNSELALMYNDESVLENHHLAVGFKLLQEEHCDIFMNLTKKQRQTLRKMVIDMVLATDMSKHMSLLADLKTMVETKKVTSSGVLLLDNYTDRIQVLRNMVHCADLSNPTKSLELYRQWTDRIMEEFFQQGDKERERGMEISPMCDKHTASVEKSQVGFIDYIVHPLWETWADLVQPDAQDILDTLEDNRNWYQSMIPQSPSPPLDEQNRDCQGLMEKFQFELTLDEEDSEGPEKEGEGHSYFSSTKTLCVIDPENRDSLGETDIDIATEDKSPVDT
structure (smiles),measurement,setting,value
COc1ccc(-c2cncc([C@@H]3COB(O)C3)c2)c2c1OC1(CCCC1)C2 [Compound 1-1],Ratio of spleen weight to body weight Mean,[1]; 0.03% applied on skin,0.63
same,Total clinical score Mean,[1]; 0.03% applied on skin,8.5
same,Erythema score Mean,[1]; 0.03% applied on skin,3.63
same,Scale score Mean,[1]; 0.03% applied on skin,2.75
same,Thickness score Mean,[1]; 0.03% applied on skin,2.13
same,single item scores (statement),"[1]; Compound 1-1 0.03%, each dose group of Compound 12-1",mainly improve scab and reduce skin thickness
same,clinical score at the endpoint (statement),[1]; [5],significantly reduce the clinical score
same,effect on the ratio of spleen weight to body weight (statement),[1]; [5],significantly reduce the ratio of spleen weight to body weight
same,effect on the ratio of spleen weight to body weight compared with Compound A,[1]; same dose (0.03%),significantly different from that of Compound A
same,IC50,[2],0.11 nM
same,IC50,[3]; read-out: PBMC IC50,0.12 nM
same,IC50,[4]; read-out: PBMC IC50,0.32 nM
COc1ccc(-c2cncc([C@H]3COB(O)C3)c2)c2c1OC1(CCCC1)C2 [Compound 1-2],IC50,[2],0.4 nM
same,IC50,[4]; read-out: PBMC IC50,3.26 nM
COc1ccc(-c2cncc(C3COB(O)C3)c2)c2c1OC(C)C2 (stereo not drawn) [Compound 2],IC50,[2],4.5 nM
COc1ccc(-c2cccc(C3COB(O)C3)c2)c2c1OC1(CCCC1)C2 (stereo not drawn) [Compound 3],IC50,[2],1.1 nM
COc1ccc(-c2cncc(C3COB(O)C3)n2)c2c1OC1(CCCC1)C2 (stereo not drawn) [Compound 4],IC50,[2],0.083 nM
same,IC50,[4]; PBMC,2.15 nM
COc1ccc(-c2cc(C3COB(O)C3)cnn2)c2c1OC1(CCCC1)C2 (stereo not drawn) [Compound 5],IC50,[4]; PBMC,1.56 nM
COc1ccc(-c2cncc(C3COB(O)C3)c2)c2c1OC(C)(C)C2 (stereo not drawn) [Compound 6],IC50,[2],0.41 nM
same,IC50,[4]; PBMC,1.56 nM
COc1ccc(-c2cncc(C3COB(O)C3)c2)c2cc(C(F)(F)F)nn12 (stereo not drawn) [Compound 7],IC50,[2],0.055 nM
same,IC50,[4]; PBMC,0.36 nM
COc1ccc(-c2cncc(C3COB(O)C3)c2)c2c1OC(C)(C)CO2 (stereo not drawn) [Compound 8],IC50,[4]; PBMC,0.74 nM
COc1ccc(-c2cncc(C3COB(O)C3)c2)c2c1OC(C)(C)CC2 (stereo not drawn) [Compound 9],IC50,[2],0.25 nM
same,IC50,[4]; PBMC,0.3 nM
COc1ccc(-c2cncc(C3COB(O)C3)c2)c2ccc(C(F)(F)F)nc12 (stereo not drawn) [Compound 10],IC50,[2],0.16 nM
same,IC50,[4]; PBMC,0.9 nM
COc1ccc(-c2cncc([C@@H]3COB(O)C3)n2)c2c1OC(C)(C)CC2 [Compound 12-1],Ratio of spleen weight to body weight Mean,[1]; 0.01% applied on skin,0.64
same,Total clinical score Mean,[1]; 0.01% applied on skin,9.5
same,Erythema score Mean,[1]; 0.01% applied on skin,4
same,Scale score Mean,[1]; 0.01% applied on skin,3.13
same,Thickness score Mean,[1]; 0.01% applied on skin,2.38
same,Ratio of spleen weight to body weight Mean,[1]; 0.03% applied on skin,0.43
same,Total clinical score Mean,[1]; 0.03% applied on skin,7.57
same,Erythema score Mean,[1]; 0.03% applied on skin,3.86
same,Scale score Mean,[1]; 0.03% applied on skin,2.14
same,Thickness score Mean,[1]; 0.03% applied on skin,1.57
same,Ratio of spleen weight to body weight Mean,[1]; 0.1% applied on skin,0.31
same,Total clinical score Mean,[1]; 0.1% applied on skin,6.75
same,Erythema score Mean,[1]; 0.1% applied on skin,3.63
same,Scale score Mean,[1]; 0.1% applied on skin,1.38
same,Thickness score Mean,[1]; 0.1% applied on skin,1.75
same,IC50,"[3]; Homo sapiens, PBMC",0.018 nM
same,IC50,[4]; PBMC,0.055 nM
"CCCOc1cc(-c2cncc([C@@H]3COB(O)C3)c2)ccc1OC [Compound A, reference compound]",Ratio of spleen weight to body weight Mean,[1]; 0.03% applied on skin,0.96
same,Total clinical score Mean,[1]; 0.03% applied on skin,8.33
same,Erythema score Mean,[1]; 0.03% applied on skin,3.33
same,Scale score Mean,[1]; 0.03% applied on skin,2.5
same,Thickness score Mean,[1]; 0.03% applied on skin,2.5
same,clinical score at the endpoint (statement),[1]; [5],significantly reduce the clinical score
same,effect on the ratio of spleen weight to body weight (statement),[1]; [5],no significant effect
same,increase of skin thickness (statement),"[1]; low and high dose groups of Compound 12-1 (0.01%, 0.1%), Compound A 0.03%",no significant effect
same,IC50,[2],0.3 nM
same,IC50,"[3]; Homo sapiens, PBMC",0.61 nM
same,IC50,[4]; PBMC,1.16 nM
"O=C(Nc1c(Cl)cncc1Cl)c1ccc(OC(F)F)c(OCC2CC2)c1 [Roflumilast, reference compound]",IC50,"[3]; Homo sapiens, PBMC",12.9 nM
